“Also recorded” adds a separate entry of the source.
System: MOLM-13 cells
Assay: In vitro splicing of endogenous transcripts (qRT-PCR, RT-PCR) in MOLM-13
Assay type: cell-based
Description: For qRT-PCR analysis of relative total mRNA expression levels or splice isoform-specific expression analyses, cDNA was synthesized using 50 ng-1 […] of template RNA in 20 μL reaction volumes using the First-Strand SUPERSCRIPT™ III Reverse Transcriptase Supermix (Life Technologies) followed by incubation with RNase H according to the manufacturer's protocol and as described previously. All cDNA products were stored at −20° C. Splice isoform-specific primers for PTK2B-202 were designed to bind to unique exon junctions for this transcript, which lacks exon 24. All primers (Table 2) were diluted to 10 μM working dilutions in DNase/RNase-free water. qRT-PCR was performed in duplicate using cDNA (1 μL reverse transcription product per reaction) on an iCycler (Bio-Rad, Hercules, Calif.) using SYBR® GREENER™ Super Mix (Life Technologies) in 25-μL volume reactions containing 0.2 μM of each forward and reverse primer. Cycling conditions were as follows: 50° C. for 2 minutes, then 95° C. for 8 minutes and 30 seconds, followed by 40 cycles of 95° C. for 15 seconds and 60° C. for 60 seconds. Melting curve analysis was performed on each plate according to the manufacturer's instructions. For standard qRT-PCR, human HPRT mRNA transcript levels were used to normalize Ct values obtained for each gene, and relative expression levels were calculated using the 2^−ddCt method. To ensure validity of results, only Ct values <35 were used in gene expression analyses. All primer sets were tested in a no-template control (NTC) reaction containing only water instead of cDNA, and all gave Ct values >35 in NTC reactions.
For evaluation of in vitro splicing activity of endogenous transcripts in HEK293 or a sAML cell line, MOLM-13 (mycoplasma-free and cytogenetically-authenticated cell lines obtained from DMSZ), cells were plated in complete media (DMEM containing 10% FBS for HEK293 and RPMI containing 20% FBS for MOLM-13). The next day, FD-895, 17S-FD-895 or DMSO vehicle controls were added at doses ranging from 0.01-10 μM for 4 hrs of treatment. Cells were lysed in RLT buffer (Qiagen) and processed for RNA extraction and subsequent PCR analyses using primers specific for DNAJB1 or MCL1 (Table 2). For all experiments in cell line, cells obtained from the vendors were frozen down in bulk at low passage numbers and used within 20 passages to minimize risk of cell line misidentification or acquisition of additional chromosomal abnormalities.
For qRT-PCR analysis of relative total mRNA expression levels or splice isoform-specific expression analyses, cDNA was synthesized using 50 ng-1 […] reaction volumes using the First-Strand SUPERSCRIPT™ III Reverse Transcriptase Supermix (Life Technologies) followed by incubation with RNase H according to the manufacturer's protocol and as described previously (Abrahamsson et al., 2009; Crews et al., 2015). All cDNA products were stored at −20° C. Splice isoform-specific primers for PTK2B-202 were designed to bind to unique exon junctions for this transcript, which lacks exon 24. All primers (Supplemental Experimental Procedures Table) were diluted to 10 ∝M working dilutions in DNase/RNase-free water. qRT-PCR was performed in duplicate using cDNA (1 ∝Λ reverse transcription product per reaction) on an iCycler (Bio-Rad, Hercules, Calif.) using SYBR® GREENER™ Super Mix (Life Technologies) in 25-∝A volume reactions containing 0.2 ∝M of each forward and reverse primer. Cycling conditions were as follows: 50° C. for 2 minutes, then 95° C. for 8 minutes and 30 seconds, followed by 40 cycles of 95° C. for 15 seconds and 60° C. for 60 seconds. Melting curve analysis was performed on each plate according to the manufacturer's instructions. For standard qRT-PCR, human HPRT mRNA transcript levels were used to normalize Ct values obtained for each gene, and relative expression levels were calculated using the 2-ddCt method. To ensure validity of results, only Ct values <35 were used in gene expression analyses. […]

SMILES: CC[C@H](OC)[C@@H](C)[C@H]1O[C@@H]1[C@@H](O)[C@H](C)/C=C/C=C(\C)[C@H]1OC(=O)C[C@H](O)CC[C@@](C)(O)[C@@H](OC(C)=O)/C=C/[C@@H]1C (stereo in doubt) [Formula 17S-FD-895, 17S-FD-895]
- EC50 of the 1 μM treatment condition (time course of DNAJB1 intron 2 retention) (MOLM-13, 1 μM, 30 mins-24 hrs, qRT-PCR, 95% C.I.): 3.2 to 6.5 h
- MCL1-S expression (qRT-PCR) (MOLM-13, 0.01-10 μM, 4 hrs): low doses of 17S-FD-895 increased MCL1-S expression, this effect was reversed at high doses
- PTK2B-202 expression (isoform-specific qRT-PCR) (MOLM-13, short-term treatment): reduced expression
- time at which the increase in DNAJB1 intron 2 levels occurred after initiation of treatment (MOLM-13 sAML cells): 30 min
- DNAJB1 intron 2 retention (MOLM-13 sAML cells, 0.01-10 μM 4 hrs, time course 30 mins-24 hrs): rapid and dose-dependent increase; also recorded: time- and dose-dependent increase
- MCL1 splicing pattern (RT-PCR, primers flanking exon 2) (MOLM-13 versus HEK293, 4 hrs): triggered MCL1 exon 2 skipping; also recorded: increased intron retention predominantly in sAML cells (MOLM-13)
